In article PMC7022715 (Pharmaceutics, 2019):

Tests used:
[1] = type: in vivo; conditions: rats, 25 mg/kg topical, 24 h monitoring
Method: In vivo pharmacokinetic study of MTK-loaded nanocrystal preparation was carried out in the healthy rats, after approval from Institutional Animal Care and Use Committee (IACUC) of Dankook University (Cheonan, Korea) (DKU-19-032, 8th October 2019). Six-week-old male Sprague-Dawley rats (SD rats, 250 ± 20 g) obtained from Samtako (Kyungki-do, Korea) were acclimated for at least 3 days, with free access to tap water and standardized chow. The rats were then divided into two groups (n = 6 per each group) and the hair on the dorsal region was removed by hair clippers without damaging the skin, prior to topical application. […] To avoid the drying of the nanocrystal or conventional hydrogels, a thin film made from polyurethane and acrylamide (Tegaderm®, 10 × 12 cm) was attached onto the application site. At predetermined time intervals (0, 0.5, 1, 2, 3, 4, 5, 8, 12, and 24 h), the blood samples (about 0.2 mL) were withdrawn from the submandibular vein using 28 G heparinized syringe. At 6 h post-administration, rats were allowed to freely access to water and standardized chow. During the experimental period (24 h), individual rats were monitored for their changes in skin and fur, behavior pattern, morbidity, and mortality. […] The drug concentration in the plasma was determined by the high-performance liquid chromatography and tandem mass spectrometry (LC–MS/MS) method described below.

[2] = design: method as in ref 11 (Al Omari et al. 2007); conditions: UV exposure for 15 min; ref 11 (Al Omari et al. 2007); cited from earlier work
[3] = In vivo pharmacokinetics after topical application to dorsal skin; conditions: male, Sprague-Dawley, rat, plasma, both hydrogel groups, rats, topical 25 mg/kg
Method: In vivo pharmacokinetic study of MTK-loaded nanocrystal preparation was carried out in the healthy rats, after approval from Institutional Animal Care and Use Committee (IACUC) of Dankook University (Cheonan, Korea) (DKU-19-032, 8th October 2019). Six-week-old male Sprague-Dawley rats (SD rats, 250 ± 20 g) obtained from Samtako (Kyungki-do, Korea) were acclimated for at least 3 days, with free access to tap water and standardized chow. The rats were then divided into two groups (n = 6 per each group) and the hair on the dorsal region was removed by hair clippers without damaging the skin, prior to topical application. […] During the experimental period (24 h), individual rats were monitored for their changes in skin and fur, behavior pattern, morbidity, and mortality. […] The drug concentration in the plasma was determined by the high-performance liquid chromatography and tandem mass spectrometry (LC–MS/MS) method described below.
Briefly, 20 μL of thawed rat plasma was mixed with 500 μL of the extraction solution (25% (v/v) of dichloromethane and 75% (v/v) of ethyl acetate), including zafirlukast (the internal standard, IS, 60 ng/mL) and vortexed for 60 s. […] Then, the residue was reconstituted with 100 μL of methanol and the final solution was analyzed through the LC-MS/MS system, composed of Nexera X2 UHPLC and LCMS-8050 mass spectrometer (Shimadzu, Tokyo, Japan). […]

[4] = oral, rats and mice, 12 months; cited from earlier work
[5] = design: method as in ref 25 (Lai et al.); conditions: photo-stability; ref 25 (Lai et al.); cited from earlier work

## CC(C)(O)c1ccccc1CC[C@@H](SCC1(CC(=O)O)CC1)c1cccc(/C=C/c2ccc3ccc(Cl)cc3n2)c1 [MTK, Montelukast]
[1]
  adverse effects following single topical administration: no marked adverse effects
[2]
  drug content in the methanolic solution: 70%
[3]; 5 h post-dosing
  concentration at 5 h: 2 to 6 ng/mL
[3]; 12 h post-dosing, read-out: drug concentration in the plasma
  concentration at 12 h: < 1 ng/mL
[4]
  NOAEL: 50 mg/kg

## CC1=C(/C=C/C(C)=C/C=C/C(C)=C/C(=O)O)C(C)(C)CCC1 [tretinoin]
[5]
  half-life with nanosuspension as compared to drug methanolic solution: 7.5 fold
